Measured values reported in article PMC8854749, “Celastrol Inhibits Canine Mammary Tumor Cells by Inducing Apoptosis via the Caspase Pathway” (Frontiers in Veterinary Science, 2022).
Peptide text beside a SMILES is read from it. * marks the point of attachment. Cbz = O=C(OCc1ccccc1)*; CH2F = FC*

Experiments:
Assay in all cases: Western blot of apoptosis- and cell cycle-related proteins
Format in all cases: cell-based, canine
[1] = test system: CMT-7364 cells; details: inhibitor with celastrol, 24 h, vs celastrol alone
Description: (§1) The CMT-7364 and CIPp cells were treated with different concentrations of Caspase inhibitor Z-V-F and/or celastrol for 24 h, and the cells were lysed with RIPA lysis buffer on ice. The protein was extracted according to the manufacturer's instructions, and protein concentration was determined by the BCA protein concentration assay kit. The loading amount of 20 μg protein in each group was separated by 10% SDS-PAGE, the separated protein was transferred to polyvinylidene fluoride membrane. After blocking with 5% skimmed milk for 1 h, the membrane was washed two times with 0.5% PBS-Tween 20 (PBS-T), then the membrane with the primary antibody was incubated overnight in a shaker at 4°C. Primary antibodies include β-actin (1:2,000), p65 (1:1,000), NF-κB (1:1,000), Caspase-9 (1:1,000), Caspase-3 (1:1,000), Bax (1:2,000), Bcl-2 (1:1,000), Cyclin D1 (1:1,000), p21 (1:1,000), and p27 (1:1,000). After washing 3 times with PBS-T buffer for 10 min each time, the membrane was incubated with HRP-conjugated secondary antibody at 37°C for 30 min. Secondary antibodies include anti-mouse IgG antibody (1:5,000), anti-rabbit IgG antibody (1:2,000~1:4,000). The membrane was washed 3 times with PBS-T for 10 min each time. Finally, it was detected by an enhanced chemiluminescence detection system, and the results were quantified by ImageJ.

[2] = test system: CIPp cells; details: inhibitor with celastrol, 24 h, vs celastrol alone
Description: as §1

[3] = test system: CIPp cells; details: inhibitor with 0.9 μM celastrol, 24 h
[4] = test system: CMT-7364 cells; details: inhibitor with 0.9 μM celastrol, 24 h

COC(=O)C[C@H](NC(=O)[C@H](C)NC(=O)[C@@H](NC(=O)OCc1ccccc1)C(C)C)C(=O)CF [Z-V-F, Z-VAD-FMK] (Cbz-Val-Ala-Asp(OMe)-CH2F)
expression of anti-apoptotic protein Bcl-2 [1]: increased
expression of pro-apoptotic protein Bax induced by celastrol [1]: decreased
expression of anti-apoptotic protein Bcl-2 [2]: increased
expression of pro-apoptotic protein Bax induced by celastrol [2]: decreased
effect on 0.9 μM celastrol-induced apoptosis [3]: block
effect on 0.9 μM celastrol-induced apoptosis [4]: block
